{"source": "patent US8101740B2", "about": "“Positron emission tomography probes for imaging immune activation and selected cancers” (The Regents of the University of California, priority 2007, dated 2012)", "key": {"[1]": {"assay": "biodistribution and radiation dosimetry in healthy human subjects", "assay_type": "in vivo", "description": "[^18F]D-FAC was evaluated in humans to a preliminary degree, whereby we investigated the normal biodistribution and radiation dosimetry of [^18F]D-FAC in human subjects (FIG. 16). […] Emission scans were acquired 20, 48, and 76 min post injection and radiation dosimetry estimates were calculated using the Olinda® software. […] The radiation dosimetry estimates show high agreement with the dosimetry results obtained from the studies in mice. The dose-limiting organs were the urinary bladder wall and the kidneys."}, "[2]": {"tested_on": "murine B16 cells", "assay": "microPET/CT of implanted B16 melanoma", "assay_type": "in vivo, C57BL/6 mice", "details": "imaged 7 days after 1×10^5 cells subcutaneously", "description": "(§1) In addition to immune diseases, [^18F]D-FAC may also be used to measure dysregulated nucleoside metabolism in cancer. To this end, we examined the utility of [^18F]D-FAC microPET in animal models representative of leukemia or lymphoma, melanoma, and glioma tumors (FIG. 12, where the images are 1 mm coronal sections from [^18F]D-FAC microPET/CT scans 1 hr after probe injection). In FIG. 12A, SCID mice were injected intravenously with Ba/F3 cells expressing p210 BCR-ABL and go on to develop aggressive disease with massive splenic infiltration that typically results in death within ˜15 days (mice shown were imaged on day 12). In FIG. 12B, the NOD SCID mice were transplanted with wild type total bone marrow cells infected with MSCV-GFP-IRES-P185 BCR-ABL retroviral stocks and the leukemic mice were imaged 28 days following transplantation. In FIG. 12C, C57BL/6 was injected subcutaneously with 1×10^5 B16 melanoma cells and imaged 7 days later. In FIG. 12D, SCID mice were injected subcutaneously with 1×10^6 U87 glioma cells and imaged 10 days later. […] [^18F]D-FAC PET also detected implanted murine B16 cells (representative of malignant melanoma) and human U87 cells (representative of glioma tumors). […]"}, "[3]": {"tested_on": "MoMSV-induced sarcomas", "assay": "microPET/CT in oncoretrovirus (MoMSV) sarcoma model of anti-tumor immunity", "description": "All the mice used in these studies were bred and maintained according to the guidelines of the Department of Laboratory Animal Medicine (DLAM) at the University of California, Los Angeles. For the oncoretrovirus-induced sarcoma model, C57/BL6 mice were challenged intramuscularly in the right triceps with the Moloney murine sarcoma and leukemia virus complex (MoMSV) in a volume of 100 uL of PBS as described previously^6. B6-MRL-Fas^1pr/J mice used for systemic autoimmunity studies were purchased from the Jackson Laboratory (stock number 000482). To monitor the immunosuppressive treatment, these mice were given intraperitoneal injections of dexamethasone (DEX, 10 mg/kg) at 24 hr intervals and were scanned by microPET/CT 24 hr after the last injection. Animals were anesthetized with 2% isoflurane, injected intravenously with 200 microCi [^18F]D-FAC and then scanned with microPET/CT; mice were sacrificed immediately after imaging. Organs were rapidly excised, weighed, and the radioactivity was measured in a well counter. After decay correction, results were expressed as percent of the injected dose of activity per gram of tissue (% ID/g). Other mice were anesthetized with 2% isoflurane and injected intravenously with 1 mCi [^18F]D-FAC. After 1 hr, mice were euthanized, embedded in 3% carboxymethyl cellulose (CMC, Sigma), and frozen in 100% ethanol with dry ice for 45 min. The 50 micron sections were cut using a whole body cryostat, (PMV, Stockholm, Sweden); samples were exposed overnight on BAS-TR2025 plates (Fujifilm Life Science, Stamford, Conn.). Imaging plates were read using a Fujibas-5000 phosphorimager (16 bit, 25 micron resolution; Fujifilm Life Science).\nIn this model, antigen-specific T cells primed by immunodominant epitopes encoded by viral gag and env genes rapidly expand in spleen and tumor draining lymph nodes (DLNs) and then traffic to the tumor lesion which is rejected over a period of 2-5 weeks^17,18. In fact, the kinetics of T cell responses against MoMSV-induced sarcomas have been studied extensively using conventional ex vivo approaches and our group has used PET reporter gene imaging to visualize tumor rejection in this model^17. To analyze whether the [^18F]D-FAC microPET/CT imaging can detect sites of localized immune activation, mice were scanned before and after the virus challenge.\nTo determine whether [^18F]D-FAC can provide unique information regarding localized immune activation via the afore-mentioned model, the mice imaged by [^18F]D-FAC were also scanned on consecutive days using [^18F]FDG and [^18F]FLT."}, "[4]": {"tested_on": "lymphoma lesion", "assay": "PET scan of human subject with lymphoma lesion", "assay_type": "in vivo", "details": "coronal PET image", "from_the_text": "FIG. 29 presents PET scan images of a human subject after injection of [^18F]D-FAC. […] The heterogeneous spleen 292 is visible."}, "[5]": {"tested_on": "human U87 cells", "assay": "microPET/CT of implanted U87 glioma", "assay_type": "in vivo, SCID mice", "details": "imaged 10 days after 1×10^6 cells subcutaneously", "description": "as §1"}, "[6]": {"assay": "microPET/CT in Fas^1pr systemic autoimmunity model", "assay_type": "in vivo, B6-MRL-Fas^1pr/J mice"}, "[7]": {"tested_on": "Bcr-Abl-expressing Ba/F3 cells and Bcr-Abl transformed bone marrow", "assay": "microPET/CT of Bcr-Abl oncogene-induced leukemia models", "assay_type": "in vivo, mouse", "details": "1 hr after probe injection", "description": "as §1, with “later.” for “later. In FIG. 12D, SCID mice were injected subcutaneously with 1×10^6 U87 glioma cells and imaged 10 days later.”\nSix to 8 week old mice with severe combined immunodeficiency (NOD SCID) were sublethally irradiated (275 rads) one day prior to reconstitution. […] Animals were monitored daily for signs of illness during a period of two months as previously described^10. […]"}, "[8]": {"tested_on": "splenic CD8+T cells", "assay": "radioactivity in sorted splenic CD8+T cells from mice injected with probe", "assay_type": "in vivo", "details": "CD62LLOW/CD44HIGH vs CD62LHIGH/CD44LOW", "quoted_text": "To further investigate the cellular basis of elevated [^18F]D-FAC retention, splenic CD8+T cells from mice injected with [^18F]FAC were fractionated by flow cytometry into naïve (CD62LHIGH/CD44LOW) and effector populations (CD62LLOW/CD44HIGH)."}}, "data": [{"smiles": "Nc1ccn([C@@H]2O[C@H](CO)[C@@H](O)[C@@H]2[18F])c(=O)n1", "note": "[[^18F]D-FAC, 1-(2′-deoxy-2′-[^18F]fluoro-β-D-arabinofuranosyl)cytosine]", "values": [{"measurement": "absorbed dose, heart wall", "setting": "[1]; 3 healthy male subjects", "result": "5.92E-02", "unit": "rem/mCi"}, {"measurement": "absorbed dose, kidneys", "setting": "[1]; 3 healthy male subjects", "result": "1.06E-01", "unit": "rem/mCi"}, {"measurement": "absorbed dose, osteogenic cells", "setting": "[1]; 3 healthy male subjects", "result": "6.69E-02", "unit": "rem/mCi"}, {"measurement": "absorbed dose, small intestine", "setting": "[1]; 3 healthy male subjects", "result": "5.80E-02", "unit": "rem/mCi"}, {"measurement": "absorbed dose, spleen", "setting": "[1]; 3 healthy male subjects", "result": "7.36E-02", "unit": "rem/mCi"}, {"measurement": "absorbed dose, urinary bladder wall", "setting": "[1]; 3 healthy male subjects", "result": "2.06E-01", "unit": "rem/mCi"}, {"measurement": "effective dose overall", "setting": "[1]; 3 healthy male subjects", "result": "5.08E-02", "unit": "rem/mCi"}, {"measurement": "retention in the GI tract in humans in contrast to mice", "setting": "[1]; human, in vivo", "result": "substantially lower"}, {"measurement": "organs with the highest accumulation", "setting": "[1]; scans 20, 48 and 76 min post injection", "result": "the bladder, the kidneys, the spleen, the salivary glands, and the heart"}, {"measurement": "detection of implanted tumor cells by PET", "setting": "[2]", "result": "detected"}, {"measurement": "accumulation in the spleen and tumor DLNs relative to baseline scans", "setting": "[3]; day 15, peak of anti-tumor immune response", "result": "significantly increased"}, {"measurement": "accumulation in the tumor", "setting": "[3]; tumor", "result": "6.7±0.3", "unit": "% ID/g"}, {"measurement": "accumulation in the tumor DLNs", "setting": "[3]; tumor draining lymph nodes", "result": "13±2.7", "unit": "% ID/g"}, {"measurement": "accumulation in tumor over background (contralateral muscle tissue)", "setting": "[3]; tumor lesions", "result": "1.9±0.3 % ID/g tumor over background"}, {"measurement": "concentration in lymph node", "setting": "[4]", "result": "high concentration"}, {"measurement": "detection of implanted tumor cells by PET", "setting": "[5]", "result": "detected"}, {"measurement": "mice with enlarged LNs on microPET scans", "setting": "[6]; Fas^1pr/J mice", "result": "9 out of 13"}, {"measurement": "mice with probe-positive LNs", "setting": "[6]; wild type mice", "result": "2 out of 19"}, {"measurement": "retention in the spleen", "setting": "[7]", "result": "increased"}, {"measurement": "retention in effector CD8+T cells versus naïve cytotoxic T cells", "setting": "[8]", "result": "~4", "unit": "fold"}]}]}
